Experimental data taken from PubChem BioAssay (NCI).
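Compound exposure: 48 hours, 5 concentrations, 96-well plates. GI50: concentration for 50% inhibition of growth. TGI marks complete inhibition of growth.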

Key:
Assay in all cases: NCI-60 cell line screen, 48 h
[1] = system: SN12C renal
[2] = system: RXF 393 renal
[3] = system: OVCAR-3 ovarian
[4] = system: 786-0 renal
[5] = system: IGROV1 ovarian
[6] = system: MCF7 breast
[7] = system: HL-60(TB) leukemia
[8] = system: HCT-15 colon
[9] = system: A498 renal
[10] = system: NCI/ADR-RES ovarian
[11] = system: UACC-62 melanoma
[12] = system: ACHN renal
[13] = system: SF-539 CNS
[14] = system: SF-295 CNS
[15] = system: HT29 colon
[16] = system: SK-OV-3 ovarian
[17] = system: DU-145 prostate
[18] = system: K-562 leukemia
[19] = system: NCI-H522 lung
[20] = system: CAKI-1 renal
[21] = system: EKVX NSCLC
[22] = system: LOX IMVI melanoma
[23] = system: A549 NSCLC
[24] = system: SNB-19 CNS
[25] = system: SNB-75 CNS
[26] = system: RPMI-8226 leukemia
[27] = system: KM12 colon
[28] = system: U251 CNS
[29] = system: NCI-H23 lung
[30] = system: HOP-62 NSCLC
[31] = system: NCI-H226 lung
[32] = system: CCRF-CEM leukemia
[33] = system: SK-MEL-5 melanoma
[34] = system: MDA-MB-468 breast
[35] = system: OVCAR-5 ovarian
[36] = system: T-47D breast
[37] = system: SK-MEL-28 melanoma
[38] = system: HS 578T breast
[39] = system: TK-10 renal
[40] = system: SW-620 colon
[41] = system: NCI-H460 lung
[42] = system: HCT-116 colon
[43] = system: SF-268 CNS
[44] = system: HCC-2998 colon
[45] = system: MOLT-4 leukemia
[46] = system: COLO 205 colon
[47] = system: MALME-3M melanoma
[48] = system: HOP-92 NSCLC
[49] = system: UACC-257 melanoma
[50] = system: OVCAR-8 ovarian
[51] = system: OVCAR-4 ovarian
[52] = system: SK-MEL-2 melanoma
[53] = system: BT-549 breast
[54] = system: MDA-MB-231 breast
[55] = system: MDA-MB-435
[56] = system: UO-31 renal
[57] = system: SR leukemia
[58] = system: M14 melanoma
[59] = system: PC-3 prostate

Which GI50 [1] does the source give for `CS(=O)(=O)Nc1cc(-c2ccc3ncnc(Nc4ccc(OCc5cccnc5)c(Cl)c4)c3c2)cnc1Cl` here?
The GI50 was 0.904 µM.

And the TGI [1]?
Its TGI is 11.3 µM.

What about the GI50 [2] of the same molecule?
The GI50 was 0.367 µM.

What about the TGI [2] of the same molecule?
The TGI was 2.44 µM.

And the GI50 [3]?
Its GI50 is 0.7 µM.

What about the TGI [3] of the same molecule?
Its TGI is 3.48 µM.

And the GI50 [4]?
The GI50 was 1.81 µM.

And the TGI [4]?
The TGI was 11.1 µM.

What about the GI50 [5] of the same molecule?
The GI50 was 0.231 µM.

And the TGI [5]?
Its TGI is 1.09 µM.

What about the GI50 [6] of the same molecule?
Its GI50 is 0.41 µM.

And the TGI [6]?
The TGI was 8.33 µM.

And the GI50 [7]?
Its GI50 is 0.335 µM.

And the TGI [7]?
Its TGI is 10.3 µM.

And the GI50 [8]?
The GI50 was 2.84 µM.

And the TGI [8]?
Its TGI is 17 µM.

What about the GI50 [9] of the same molecule?
Its GI50 is 1.84 µM.

What about the TGI [9] of the same molecule?
The TGI was 6.49 µM.

And the GI50 [10]?
The GI50 was 32.7 µM.

And the TGI [10]?
The TGI was over 100 µM.

What about the GI50 [11] of the same molecule?
Its GI50 is 0.419 µM.

And the TGI [11]?
The TGI was 2.32 µM.

What about the GI50 [12] of the same molecule?
The GI50 was 4.45 µM.

And the TGI [12]?
The TGI was over 48.8 µM.

And the GI50 [13]?
Its GI50 is 0.852 µM.

What about the TGI [13] of the same molecule?
Its TGI is 3.5 µM.

And the GI50 [14]?
Its GI50 is 2.37 µM.

What about the TGI [14] of the same molecule?
Its TGI is 12.1 µM.

What about the GI50 [15] of the same molecule?
Its GI50 is 1.95 µM.

And the TGI [15]?
Its TGI is 13.2 µM.

What about the GI50 [16] of the same molecule?
The GI50 was 1.49 µM.

What about the TGI [16] of the same molecule?
Its TGI is 7.14 µM.

And the GI50 [17]?
The GI50 was 2.74 µM.

What about the TGI [17] of the same molecule?
The TGI was 21.5 µM.

And the GI50 [18]?
The GI50 was 1.85 µM.

What about the TGI [18] of the same molecule?
The TGI was 32.4 µM.

And the GI50 [19]?
The GI50 was 0.641 µM.

What about the TGI [19] of the same molecule?
Its TGI is 4.39 µM.

What about the GI50 [20] of the same molecule?
Its GI50 is 0.935 µM.

And the TGI [20]?
Its TGI is 6.45 µM.

What about the GI50 [21] of the same molecule?
The GI50 was 0.97 µM.

What about the TGI [21] of the same molecule?
Its TGI is 6.25 µM.

And the GI50 [22]?
The GI50 was 0.792 µM.

What about the TGI [22] of the same molecule?
The TGI was 2.73 µM.

And the GI50 [23]?
The GI50 was 7.76 µM.

What about the TGI [23] of the same molecule?
The TGI was 25.1 µM.

What about the GI50 [24] of the same molecule?
Its GI50 is 1.15 µM.

And the TGI [24]?
Its TGI is 9.24 µM.

And the GI50 [25]?
Its GI50 is 0.139 µM.

And the TGI [25]?
The TGI was 4.37 µM.

And the GI50 [26]?
Its GI50 is 2.05 µM.

And the TGI [26]?
The TGI was 6.8 µM.

What about the GI50 [27] of the same molecule?
The GI50 was 3.82 µM.

And the TGI [27]?
The TGI was 15.2 µM.

What about the GI50 [28] of the same molecule?
The GI50 was 0.917 µM.

What about the TGI [28] of the same molecule?
Its TGI is 4.65 µM.

And the GI50 [29]?
Its GI50 is 1.37 µM.

And the TGI [29]?
Its TGI is 5.33 µM.

What about the GI50 [30] of the same molecule?
The GI50 was 1.56 µM.

And the TGI [30]?
The TGI was 40.9 µM.

And the GI50 [31]?
Its GI50 is 1.43 µM.

What about the TGI [31] of the same molecule?
The TGI was 10.3 µM.

What about the GI50 [32] of the same molecule?
Its GI50 is 0.801 µM.

And the TGI [32]?
Its TGI is over 37.9 µM.

What about the GI50 [33] of the same molecule?
Its GI50 is 0.617 µM.

What about the TGI [33] of the same molecule?
Its TGI is 1.93 µM.

What about the GI50 [34] of the same molecule?
Its GI50 is 0.208 µM.

And the TGI [34]?
Its TGI is 0.962 µM.

What about the GI50 [35] of the same molecule?
Its GI50 is 2.24 µM.

And the TGI [35]?
Its TGI is 18 µM.

What about the GI50 [36] of the same molecule?
The GI50 was 0.15 µM.

And the TGI [36]?
The TGI was 1.47 µM.

What about the GI50 [37] of the same molecule?
Its GI50 is 0.652 µM.

What about the TGI [37] of the same molecule?
The TGI was 8.64 µM.

What about the GI50 [38] of the same molecule?
The GI50 was 0.196 µM.

What about the TGI [38] of the same molecule?
The TGI was 1.7 µM.

What about the GI50 [39] of the same molecule?
Its GI50 is 0.714 µM.

What about the TGI [39] of the same molecule?
The TGI was 5.51 µM.

What about the GI50 [40] of the same molecule?
Its GI50 is 1.9 µM.

What about the TGI [40] of the same molecule?
The TGI was 10.9 µM.

And the GI50 [41]?
Its GI50 is 3.58 µM.

What about the TGI [41] of the same molecule?
The TGI was 21.4 µM.

What about the GI50 [42] of the same molecule?
The GI50 was 1.69 µM.

And the TGI [42]?
The TGI was 4.55 µM.

What about the GI50 [43] of the same molecule?
Its GI50 is 0.835 µM.

And the TGI [43]?
The TGI was 10.4 µM.

What about the GI50 [44] of the same molecule?
Its GI50 is 1.59 µM.

And the TGI [44]?
Its TGI is 5.22 µM.

And the GI50 [45]?
Its GI50 is 0.465 µM.

What about the TGI [45] of the same molecule?
Its TGI is 4.91 µM.

And the GI50 [46]?
Its GI50 is 1.41 µM.

And the TGI [46]?
Its TGI is 3.59 µM.

What about the GI50 [47] of the same molecule?
The GI50 was 0.271 µM.

And the TGI [47]?
The TGI was 2.13 µM.

And the GI50 [48]?
Its GI50 is 0.183 µM.

And the TGI [48]?
The TGI was 1.97 µM.

And the GI50 [49]?
Its GI50 is 1.62 µM.

What about the TGI [49] of the same molecule?
The TGI was 12.6 µM.

What about the GI50 [50] of the same molecule?
The GI50 was 2.56 µM.

And the TGI [50]?
Its TGI is 20.5 µM.

What about the GI50 [51] of the same molecule?
Its GI50 is 4.91 µM.

What about the TGI [51] of the same molecule?
The TGI was 90.4 µM.

And the GI50 [52]?
Its GI50 is 0.901 µM.

And the TGI [52]?
Its TGI is 2.7 µM.

What about the GI50 [53] of the same molecule?
The GI50 was 0.379 µM.

And the TGI [53]?
The TGI was 2.22 µM.

What about the GI50 [54] of the same molecule?
The GI50 was 0.96 µM.

What about the TGI [54] of the same molecule?
Its TGI is 3.05 µM.

What about the GI50 [55] of the same molecule?
The GI50 was 1.16 µM.

What about the TGI [55] of the same molecule?
The TGI was 9.24 µM.

What about the GI50 [56] of the same molecule?
Its GI50 is 1.68 µM.

And the TGI [56]?
The TGI was 20.3 µM.

And the GI50 [57]?
The GI50 was 0.746 µM.

What about the TGI [57] of the same molecule?
Its TGI is over 20.6 µM.

And the GI50 [58]?
Its GI50 is 1.51 µM.

What about the TGI [58] of the same molecule?
The TGI was 13.8 µM.

And the GI50 [59]?
The GI50 was 1.66 µM.

And the TGI [59]?
The TGI was 14.3 µM.
